The values below come from ChEMBL document CHEMBL5096208, “Installation of Pargyline, a LSD1 Inhibitor, in the HDAC Inhibitory Template Culminated in the Identification of a Tractable Antiprostate Cancer Agent” (J Med Chem, 2021).

Active and inactive are the calls of the source.

In series [1] the test system is PC-3. Kind of series: Antiproliferative activity against human PC-3 cells assessed as cell growth inhibition incubated for 48 hrs by MTT assay. The class given is functional. For orientation: Tetrazolium dyes change colour on reduction, which living cells bring about.
For series [2], the system named is PC-3. Kind of series: Upregulation of acetyl-tubulin in human PC-3 cells at 0.625 to 5 uM by Western blot analysis. The settings on record: dose 0.625-5 µM. It is filed as functional, cell-based. On the technique in general: A western blot detects proteins with antibodies after separation by electrophoresis.
Series [3] has as its system DU-145. Nature of the series: Antiproliferative activity against human DU-145 cells assessed as cell growth inhibition incubated for 48 hrs by MTT assay. The class given is functional.
Series [4] concerns PC-3. Nature of the series: Antiproliferative activity against human PC-3 cells assessed as cell growth inhibition at upto 10 uM incubated for 48 hrs by MTT assay. The class given is functional, cell-based.
A further series addresses Histone deacetylase 3 (Homo sapiens, UniProt O15379). Nature of the series: Inhibition of human HDAC3 (379 to 382 residues) using RHKKAc as flurogenic substrate.
The target in the next series is T1, Histone deacetylase 8 (Homo sapiens, UniProt Q9BY41).
T1 sequence (Q9BY41 whole entry): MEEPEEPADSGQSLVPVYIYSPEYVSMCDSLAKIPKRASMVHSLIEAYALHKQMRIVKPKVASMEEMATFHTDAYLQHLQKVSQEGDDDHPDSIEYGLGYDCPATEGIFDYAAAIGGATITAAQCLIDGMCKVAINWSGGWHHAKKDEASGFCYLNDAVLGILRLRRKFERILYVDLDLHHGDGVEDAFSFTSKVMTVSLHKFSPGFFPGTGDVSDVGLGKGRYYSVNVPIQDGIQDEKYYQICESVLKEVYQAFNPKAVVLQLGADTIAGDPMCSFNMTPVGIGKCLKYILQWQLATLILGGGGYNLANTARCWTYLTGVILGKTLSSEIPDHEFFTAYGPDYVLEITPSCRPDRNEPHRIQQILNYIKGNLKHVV
Nature of the series: Inhibition of human HDAC8 (379 to 382 residues) using RHKAcKAc as flurogenic substrate.

Series [5] is filed under the species Homo sapiens. Nature of the series: Selectivity ratio of IC50 for human HDAC3 to IC50 for human HDAC6.
The species entered for series [6] is Homo sapiens. Nature of the series: Selectivity ratio of IC50 for human HDAC5 to IC50 for human HDAC6.
Series [7] deals with T2, Amine oxidase [flavin-containing] A (Homo sapiens, UniProt P21397).
T2 sequence (P21397 whole entry): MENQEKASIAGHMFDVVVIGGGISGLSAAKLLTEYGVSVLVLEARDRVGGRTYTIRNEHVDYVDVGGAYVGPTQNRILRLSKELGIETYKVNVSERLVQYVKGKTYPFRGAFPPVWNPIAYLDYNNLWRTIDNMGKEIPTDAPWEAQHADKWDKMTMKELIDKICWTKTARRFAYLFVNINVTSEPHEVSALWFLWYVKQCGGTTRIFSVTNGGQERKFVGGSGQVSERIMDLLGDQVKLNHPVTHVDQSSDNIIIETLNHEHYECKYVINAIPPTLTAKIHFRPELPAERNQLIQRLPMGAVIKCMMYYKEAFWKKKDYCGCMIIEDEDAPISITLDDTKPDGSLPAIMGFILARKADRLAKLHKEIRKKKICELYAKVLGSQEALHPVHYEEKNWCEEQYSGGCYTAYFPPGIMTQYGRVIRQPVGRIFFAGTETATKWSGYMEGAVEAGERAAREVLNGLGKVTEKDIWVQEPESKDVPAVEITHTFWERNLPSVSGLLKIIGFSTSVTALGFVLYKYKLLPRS
Nature of the series: Inhibition of human full length recombinant MAO-A expressed in insect cells using kynuramine as substrate.

Series [8] relates to DU-145. Kind of series: Induction of H3K4ME2 accumulation in human DU-145 cells at 0.5 to 10 uM incubated for 48 hrs by Western blot analysis. The class given is functional, cell-based. The settings on record: dose 0.5-10 µM.
A short description of series [9]: Oral bioavailability in Sprague-Dawley rat at 25 mg/kg administered once via gavage measured upto 24 hrs post dose by UPLC-MS/MS analysis. It is filed as ADME, organism-based. The settings on record: in vivo.
Series [10] is described as follows: Cmax in Sprague-Dawley rat at 25 mg/kg, po formulated using SMEDDS administered once via gavage measured upto 24 hrs post dose by UPLC-MS/MS analysis. The class given is ADME, organism-based. Set-up: dose 25 mg/kg, time < 24 hrs, route po. The settings on record: in vivo.
Series [11] can be described thus: Metabolic stability in Sprague-Dawley rat hepatocyte assessed as parent compound remaining at 10 uM incubated for 60 mins by LC-MS/MS analysis. It is filed as ADME, cell-based. The settings on record: hepatocytes, read-out: Stability.
The nature of series [12]: Metabolic stability in human hepatocyte assessed as parent compound remaining at 10 uM incubated for 30 mins by LC-MS/MS analysis. It is filed as ADME, cell-based. The settings on record: hepatocytes, read-out: Stability.
Series [13] can be described thus: Metabolic stability in human hepatocyte assessed as half life at 10 uM by LC-MS/MS analysis. It is filed as ADME, cell-based. Conditions: hepatocytes.
Series [14] deals with DU-145. Nature of the series: Antitumor activity against human DU-145 cells xenografted in athymic nude mouse assessed as tumor growth inhibition at 100 mg/kg, po administered twice daily and measured upto 60 days by caliper method relative to control. The settings on record: DU-145, 1440 h, time <= 60 day, read-out: TGI. It is filed as functional. (In xenograft studies the graft and the host belong to different species.)

The term GI50 denotes the concentration at which growth is held to half of that of the control. Broadly, the IC50 is the concentration at which inhibition is half-maximal. What is called bioavailability is the share of a dose that reaches the circulation, judged against a reference dose that is usually intravenous. By Cmax is commonly meant the peak of the concentration-time curve. Usually half-life stands for the time needed for the level to fall by half in the phase considered.

Chain of Histone deacetylase 3 (O15379 whole entry, the tested form may be a part): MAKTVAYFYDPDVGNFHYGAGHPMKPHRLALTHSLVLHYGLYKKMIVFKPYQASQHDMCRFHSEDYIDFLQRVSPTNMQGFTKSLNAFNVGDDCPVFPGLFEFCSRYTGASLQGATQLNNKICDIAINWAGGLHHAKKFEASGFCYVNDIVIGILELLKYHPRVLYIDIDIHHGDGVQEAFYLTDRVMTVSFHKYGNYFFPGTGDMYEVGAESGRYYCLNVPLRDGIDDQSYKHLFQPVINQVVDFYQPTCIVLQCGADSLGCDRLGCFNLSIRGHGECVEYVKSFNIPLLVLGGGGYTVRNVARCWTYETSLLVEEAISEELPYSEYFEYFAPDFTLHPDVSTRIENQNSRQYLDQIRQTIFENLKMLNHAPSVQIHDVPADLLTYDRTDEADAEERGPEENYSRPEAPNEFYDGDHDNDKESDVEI

On to `C#CCN(C)Cc1cccc(NC(=O)CCCCCCC(=O)NO)c1`, for which the GI50 in the series on PC-3 [1] amounted to 330 nM; in the series with DU-145 [3], 420 nM. Further, the outcome in the series on PC-3 [2], in the series with PC-3 [4] and with DU-145 [8] was Active. For the same molecule, the IC50 at Histone deacetylase 3 was determined as 133 nM; at Histone deacetylase 8, 210 nM; in series [7] it was 790 nM. The Ratio IC50 in the series listed under Homo sapiens [5] stood at 5.8; in the series filed under Homo sapiens [6] it was 670. The bioavailability in series [9] was 11.8%. Moreover, the maximum concentration (Cmax) in series [10] amounted to 257 ng/mL. Also, in [11], the remaining at 1 h, 10 µM was found to be 52.5%. In [12], the remaining at 0.5 h, 10 µM turned out to be 103%. Also, in [13], the half-life at 10 µM is 13.3 h. The inhibition in vivo at 100 mg/kg with DU-145 [14] worked out at 73.6%.
